From patent US20120184624A1, “Treatment of Alzheimer's Disease” (priority 2010, published 2012)
Read-outs that look alike come from different tables or passages of the source.

Tests used:
[1] = biological target: T1, purified PP2Ac (catalytic subunit of PP2A) (Homo sapiens, UniProt P67775); assay: PP2A activity assay (malachite green), purified PP2Ac; type: biochemical; conditions: 10 nM okadaic acid, 1 hour
T1 construct: purchased upstate
Description: (§1) Either purified PP2Ac (upstate), cell lysates or PP2A-holoenzymes, which were purified by immunoprecipitation using a PP2A-A-subunit antibody (Millipore), were incubated with or without 10 mM metformin or 10 nM okadaic acid for 1 hour. Afterwards PP2A phosphatase activity was determined using a malachite green assay kit (upstate) following the manufacturer's instructions.

PP2A-holoenzymes = assay: PP2A activity assay (malachite green), PP2A-holoenzymes immunopurified from HeLa cell lysates; type: biochemical; conditions: 10 nM okadaic acid, 1 hour
Description: as §1

tau = type: cell-based, mouse; conditions: for de-phosphorylation of tau at PP2A sensitive sites: increasing concentration of phenformin over 16 h or 1 h
Description: (§2) Primary cortical neurons were isolated from brain of wt or transgenic (Mapt^tm1(EGFP)klt Tg(MAPT)8cPdav/J; Jackson Laboratory) embryos at day 14.5. Cortices were collected in DMEM (Lonza) and cells were dissociated by incubation with Trypsin/EDTA for 6.5 min at 37° C. Cells were then diluted in neurobasal medium (Gibco-BRL) containing B27 supplement (Gibco BRL). Cells were plated at a density of 4.0×10^5 onto 0.2 mg/ml poly-D-lysin (Sigma) and 2 μg/ml Laminin (Sigma) coated 12 well plates. Neurons were incubated at 37° C. with 8% CO2. One hour after seeding a complete change of medium was performed. Later on, each 96 hours half volumes of the medium were replaced by fresh medium. After 7 days in culture neurons were treated.
(§3) Cells were incubated with the respective substances as follows: Metformin (Sigma) at final concentrations up to 2.5 mM for 1 to >24 hours, okadaic acid (Sigma) at final concentrations from 1 nM to 10 nM for 4 h, Fostricien (Sigma) at final concentration of 1 μM for 4 h and AICAR (cell signalling) at final concentration of 5 mM for 0.5-16 h. For cell treatment without insulin, medium containing B27+insulin supplement was replaced with medium containing B27-supplement without insulin 24 h before treatment. 3 groups of 2 mice were treated with or without 5 mg/l metformin in the drinking water.
(§4) Cell pellets were homogenized in Magic-Mix (48% UREA, 15 mM Tris-HCL pH 7.5, 8.7% Glycerin, 1% SDS, 0.004% Bromphenolblue, 143 mM Mercaptoethanol), sonicated and boiled for 5 min at 95° C. Proteins were resolved on 8 or 10% SDS gels and blotted onto PVDF-membranes (Roche). Antibodies used in this study were purchased from the following companies: Tau-5 (Biosource), anti-human PHF pSer202 (Thermo scientific), Tau pSer356 (Biosource), Tau pSer262 (Biosource), Tau pSer396 (Sigma), Actin (Sigma), ACC (cell signalling), ACC pSer79 (cell signalling), phospho-S6 ribosomal protein pSer241/244 (cell signalling), p70S6 Kinase (cell signalling), p70S6K pThr421/pSer424 (cell signalling), mTOR (cell signalling), AMPK (cell signallling, AMPK pThr172 (cell singnaling), HRP-anti-rabbit (Amersham), HRP-anti-mouse (Dianova). The resulting bands were quantified using Imagequant5.2. Statistical analyses were performed using SigmaStat software package (v 3.0, SPSS, USA). For timecourse or dose-response studies, data were analyses by one-way ANOVA with post hoc Dunnett's or Bonferonni test to accommodate for multiple comparisons. A Student's t-test was used for two-group comparisons, as appropriate.

ACC = assay: Phosphorylation of the AMPK target ACC (Ser79) in primary cortical neurons; type: cell-based, mouse; conditions: 0.25 mM phenformin, increasing time intervals
Description: as §2
as §3, with “3 groups of 2 mice were treated with or without 5 mg/l metformin in the drinking water.” left out
as §4, with “Proteins were resolved on 8 or 10% SDS gels and blotted onto PVDF-membranes (Roche).” left out, “Statistical analyses were performed using SigmaStat software package (v 3.0, SPSS, USA). For timecourse or dose-response studies, data were analyses by one-way ANOVA with post hoc Dunnett's or Bonferonni test to accommodate for multiple comparisons. A Student's t-test was used for two-group comparisons, as appropriate.” left out

p70S6kinase = assay: Phosphorylation of p70S6kinase in primary cortical neurons; type: cell-based, mouse; conditions: 0.25 mM phenformin over increasing time intervals
Description: as §2, §3, §4

[2] = increasing concentrations of okadaic acid (1 nM to 10 nM), four hours

T1 sequence (P67775 whole entry): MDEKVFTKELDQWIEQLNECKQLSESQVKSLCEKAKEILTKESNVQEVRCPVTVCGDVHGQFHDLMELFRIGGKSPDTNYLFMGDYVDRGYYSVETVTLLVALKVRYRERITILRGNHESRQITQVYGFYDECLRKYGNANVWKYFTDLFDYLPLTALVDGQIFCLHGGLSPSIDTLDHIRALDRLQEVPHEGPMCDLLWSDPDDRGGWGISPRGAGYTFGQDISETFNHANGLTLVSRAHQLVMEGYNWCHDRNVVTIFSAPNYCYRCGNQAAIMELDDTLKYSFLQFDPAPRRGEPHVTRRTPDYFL

SMILES	PP2A activity of purified PP2Ac [1]	activity of the immunopurified PP2A protein complex (PP2A-holoenzymes)	phosphorylation of Ser202 (tau; 10 nM okadaic acid alone, 4 hours)	phosphorylation of Ser202 relative to total tau (tau; [2])	phosphorylation of Ser262 relative to total tau (tau; [2])	phosphorylation of Ser356 relative to total tau (tau; [2])	phosphorylation of Ser396 relative to total tau (tau; [2])	ACC phosphorylation (Ser79) (ACC)	phosphorylation status of p70S6kinase (p70S6kinase)	phosphorylation status of p70S6kinase (p70S6kinase; listed as Phenformin)	de-phosphorylation of tau at PP2A sensitive sites (tau)	de-phosphorylation of tau at PP2A sensitive sites (tau; listed as Phenformin)	effect on Ser202 phosphorylation with and without okadaic acid pre-treatment (tau; okadaic acid 10 nM prior to phenformin 0.25 mM, 4 hours)
C=C1[C@@H](O)[C@@H]2O[C@]3(CC[C@H](/C=C/[C@@H](C)[C@@H]4CC(C)=C[C@@]5(O[C@H](C[C@@](C)(O)C(=O)O)CC[C@H]5O)O4)O3)CC[C@H]2O[C@@H]1[C@@H](O)C[C@H](C)[C@H]1O[C@@]2(CCCCO2)CC[C@H]1C [okadaic acid]	reduced	reduced	increased	increased with the concentration of OA	increased with the concentration of OA	increased with the concentration of OA	did not increase significantly						
[H]/N=C(/N)N/C(=N/[H])NCCc1ccccc1 [phenformin, Phenformin]								neither metformin (FIG. 4a) nor phenformin (FIG. 12) had an effect	promoted de-phosphorylation	decrease of pS6kinase phosphorylation	Comparable results	induces de-phosphorylation	inhibition of PP2A blocks the Phenformin effect
